# From ChEMBL document CHEMBL4619823, “Allosteric Modulation of Protein Arginine Methyltransferase 5 (PRMT5)” (ACS Med Chem Lett, 2020)
# Target: PRMT5/MEP50 complex (Homo sapiens, UniProt O14744)
# Test: Inhibition of recombinant Avi-tagged PRMT5 (2 to 637)/ His-tagged MEP50 (2 to 342) (unknown origin) expressed in baculovirus infected Sf21 cells using biotinylated H4R3 (Me1) peptide as substrate in presence of SAM preincubated for 60 mins followed by substrate addition after 150 mins by biochemical methylation assay
# PRMT5/MEP50 complex, sequence (O14744 whole entry): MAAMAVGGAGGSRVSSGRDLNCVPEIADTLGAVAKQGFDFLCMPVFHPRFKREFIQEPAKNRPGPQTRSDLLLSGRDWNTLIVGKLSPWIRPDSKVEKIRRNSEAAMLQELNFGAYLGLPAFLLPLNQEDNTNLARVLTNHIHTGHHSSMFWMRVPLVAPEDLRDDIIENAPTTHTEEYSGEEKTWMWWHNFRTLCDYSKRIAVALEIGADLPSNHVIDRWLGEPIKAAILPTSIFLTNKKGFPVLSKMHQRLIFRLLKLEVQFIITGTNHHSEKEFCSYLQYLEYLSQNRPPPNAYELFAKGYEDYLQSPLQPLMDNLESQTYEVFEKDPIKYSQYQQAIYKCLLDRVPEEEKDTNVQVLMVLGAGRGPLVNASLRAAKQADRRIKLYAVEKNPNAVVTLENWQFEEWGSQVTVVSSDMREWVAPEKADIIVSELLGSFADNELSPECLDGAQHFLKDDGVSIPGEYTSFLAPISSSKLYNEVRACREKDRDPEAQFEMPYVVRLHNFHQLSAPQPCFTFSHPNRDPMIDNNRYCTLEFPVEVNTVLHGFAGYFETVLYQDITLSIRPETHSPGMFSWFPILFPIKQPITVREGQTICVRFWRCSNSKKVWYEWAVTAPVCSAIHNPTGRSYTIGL
# PRMT5/MEP50 complex, sequence (Q9BQA1 whole entry, further chain): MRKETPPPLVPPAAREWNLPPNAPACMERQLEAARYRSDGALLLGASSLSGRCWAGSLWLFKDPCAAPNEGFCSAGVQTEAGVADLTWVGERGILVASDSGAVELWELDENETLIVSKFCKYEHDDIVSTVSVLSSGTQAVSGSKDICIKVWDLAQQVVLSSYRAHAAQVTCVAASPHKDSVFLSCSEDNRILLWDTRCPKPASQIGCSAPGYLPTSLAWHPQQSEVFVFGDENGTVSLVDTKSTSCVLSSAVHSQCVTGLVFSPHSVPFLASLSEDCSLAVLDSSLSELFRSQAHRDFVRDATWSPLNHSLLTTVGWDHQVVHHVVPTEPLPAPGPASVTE
row,SMILES,EC50
1,CN1C(=O)[C@@](CCC2CCCCC2)(c2ccccc2)N=C1N,50 nM
2,COc1ccc([C@]2(C34CC5CC(CC(C5)C3)C4)N=C(N)N(C)C2=O)cc1,3100 nM
3,COc1ccc([C@@]2(C34CC5CC(CC(C5)C3)C4)N=C(N)N(C)C2=O)cc1,16 nM
4,CN1C(=O)[C@](c2ccccc2)(C23CC4CC(CC(C4)C2)C3)N=C1N,12 nM
5,COc1cccc([C@@]2(C34CC5CC(CC(C5)C3)C4)N=C(N)N(C)C2=O)c1,56 nM
6,CN1C(=O)[C@](c2ccc3ccccc3c2)(C23CC4CC(CC(C4)C2)C3)N=C1N,90 nM
7,CCC1CCN2C(=O)[C@](c3ccccc3)(C34CC5CC(CC(C5)C3)C4)N=C2N1 (stereo partly drawn),68 nM
8,CC1CCN2C(=O)[C@](c3ccccc3)(C34CC5CC(CC(C5)C3)C4)N=C2N1 (stereo partly drawn),66 nM

# Results, then the compound that gave them:
row,EC50,SMILES
1,220 nM,COc1ccc([C@@]2(C34CC5CC(CC(O)(C5)C3)C4)N=C(N)N(C)C2=O)cc1
2,240 nM,COc1ccc([C@@]2(C34CCC(CC3)CC4)N=C(N)N(C)C2=O)cc1
3,620 nM,COc1ccc(C2(C34CC5CC(O)(CC(F)(C5)C3)C4)N=C(N)N(C)C2=O)cc1 (stereo not drawn)

# Target: Protein arginine N-methyltransferase 5 (Homo sapiens, UniProt O14744)
# Test: Inhibition of PRMT5 in human MCF7 cells assessed as reduction in symmetrically dimethylated nuclear protein level incubated for 3 days by Alexafluor-488 conjugate anti-rabbit antibody/DAPI staining based IN cell analyzer method
# Protein arginine N-methyltransferase 5, sequence (O14744 whole entry): as the sequence (O14744 whole entry) above
row,SMILES,EC50
1,COc1ccc([C@@]2(C34CC5CC(CC(C5)C3)C4)N=C(N)N(C)C2=O)cc1,4600 nM

# Target: PRMT5/MEP50 complex (Homo sapiens) (UniProt O14744+Q9BQA1)
# Test: Binding affinity to human biotinylated PRMT5/MEP50 assessed as association rate constant by SPR analysis
# Format: protein-complex assay
row,SMILES,Ka
1,COc1ccc([C@@]2(C34CC5CC(CC(C5)C3)C4)N=C(N)N(C)C2=O)cc1,1000 M⁻¹ s⁻¹
